Values of other authors in US9481636B2, “N-benzylaniline derivative and uses thereof” (Nanjing Medical University, priority 2011, dated 2016).

Columns and labels:
[1] = test system: mechanical hyperalgesia and thermal hyperalgesia; conditions: pain models in rodents; Brit. J. Pharmacol., 2009, 158, 494-506; cited from earlier work
[2] = test system: complete Freund's adjuvant (CFA)-induced muscle hyperalgesia; conditions: intramuscular injection; dose-dependent; Neuroreport, 2005, 16, 485; cited from earlier work
[3] = test system: capsaicin-induced mechanical and thermal hyperalgesia; conditions: intrathecal injection, Neuropharmacology, 2005, 48, 325; cited from earlier work

Oc1c(Cl)cc(Cl)cc1CNc1ccc2[nH]nnc2c1 [IC87201, 2-[(1H-benzotriazole-5-amino)methyl]-4,6-dichlorophenol]
mechanical hyperalgesia and thermal hyperalgesia [1]: significant inhibitory effects

NC(CCCP(=O)(O)O)C(=O)O (stereo not drawn) [AP-5]
CFA-induced muscle hyperalgesia [2]: reduce

C[C@]12N[C@H](Cc3ccccc31)c1ccccc12 [MK-801]
mechanical allodynia and thermal hyperalgesia [3]: significantly alleviate
